Test system: endothelial cells 301 and the smooth muscle cells 302
Test: drug evaluation method: toxicity of a drug to cells cultured on the porous membrane of a microfluidic device, read by flow rate in the lower micro flow channel
Type: cell-based
Conditions: cytochalasin 50 μg/ml contained in liquid A and liquid B; concluded from the increased flow-rate slope (decreased barrier property)
Description: The drug evaluation method according to the present embodiment includes culturing cells on the surface of the porous membrane 30 of the microfluidic device 110 (a step S41). […] This makes it possible to form a structure that simulates the blood vessel (the artery) in the microfluidic device 110. It is noted that the cells to be evaluated may be cultured only on one surface of the porous membrane 30.
The drug evaluation method according to the present embodiment includes exposing cells cultured on the surface of the porous membrane 30 to a drug to be evaluated (a step S42). That is, a liquid containing a drug to be evaluated is supplied to each of the upper micro flow channel 18 and the lower micro flow channel 24.
The drug evaluation method according to the present embodiment includes acquiring the evaluation indicator of the permeability of the porous membrane 30 according to any one of the first to third embodiments described above as an indicator of toxicity of the drug to be evaluated to the cells. That is, the change that occurs in the liquid accommodated in the lower micro flow channel 24 is acquired as an indicator of toxicity of the drug to be evaluated to the cells, in a case where the liquid is supplied to the upper micro flow channel 18 while the supply pressure is being changed (a step S43). […]

Q: For cytochalasin, which “toxicity to the endothelial cells 301 and the smooth muscle cells 302” value is on record?
A: Its value is “has toxicity”.

From patent US11453904B2, “Evaluation method for permeability of porous membrane, cell evaluation method, and drug evaluation method” (FUJIFILM CORPORATION, priority 2019, dated 2022)
